Laboratory results reported in patent US9266876B2 (Actelion Pharmaceuticals Ltd., priority 2012, dated 2016).

Tests used:
human CXCR3A = human CXCR3A (Homo sapiens (Human), UniProt P49682); experiment: FLIPR assay; format: cell-based; conditions: CHO-K1 cells expressing the human CXCR3A coupled to Galpha(16); CXCL10 agonist 20 nM; Fluo-4-AM fluorescence; mean values if determined several times
How it was run: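 CHO-K1 cells expressing CXCR3A coupled to Gα16 were loaded with Fluo-4-AM for 1 h in Hepes-buffered HBSS, pH 7.4, with 5 mM probenecid. Compound dilutions were added on the FLIPR, followed by CXCL10 (added as a 20 nM solution). Baseline-subtracted peak fluorescence was fitted to a single-site curve for IC50.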

CXCR3 = CXCR3 (Homo sapiens (Human), UniProt P49682); experiment: Receptor internalization assay; format: cell-based; conditions: human whole blood; final CXCL10 concentration 9 nM; 30 min 37° C.; CXCR3 cell surface expression on CD3 positive cells, flow cytometer; read-out: Internalization IC50
Method: B): Receptor Internalization Assay:
Stock solutions of test compounds are made up at a concentration of 10 mM in DMSO, and serially diluted in PBS containing 0.5% BSA to concentrations required for inhibition dose response curves. Diluted compounds are then mixed with an equal volume of CXCL10 (Peprotech) diluted in PBS. Anticoagulated venous human whole blood is added to the mixture, which is then incubated in a CO2 incubator at 37° C. to allow for ligand mediated receptor internalization (final CXCL10 concentration is 9 nM). After 30′, the blood is mixed with fluorescently labeled CXCR3 and CD3 specific antibodies (Becton Dickinson) and incubated on ice for 10 minutes. Samples are then mixed with BD FACS Lysing Solution (Becton Dickinson) in order to eliminate red blood cells. After washing the cells with PBS containing 0.5% BSA, the samples are then analyzed in a flow cytometer (FACS Canto II, Becton Dickinson). For data analysis using FACSDiva software (Becton Dickinson), the mean fluorescence corresponding to CXCR3 cell surface expression was determined on CD3 positive cells. The program GraphPad Prism is used to fit the data to a single site dose response curve and to calculate IC50 values.

Sequence of human CXCR3A (P49682 whole entry): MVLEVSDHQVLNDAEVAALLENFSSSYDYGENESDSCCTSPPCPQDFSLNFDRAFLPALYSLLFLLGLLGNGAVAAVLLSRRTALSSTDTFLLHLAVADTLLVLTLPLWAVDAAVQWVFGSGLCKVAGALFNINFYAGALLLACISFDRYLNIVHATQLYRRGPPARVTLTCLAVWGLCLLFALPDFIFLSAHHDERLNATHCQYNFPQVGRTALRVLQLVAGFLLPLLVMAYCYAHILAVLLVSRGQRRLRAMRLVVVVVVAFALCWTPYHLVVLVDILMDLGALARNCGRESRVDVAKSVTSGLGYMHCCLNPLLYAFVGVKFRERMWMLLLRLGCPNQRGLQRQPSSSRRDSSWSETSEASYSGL
Sequence of CXCR3 (P49682 whole entry): as above

Row | Structure (SMILES) | IC50 (human CXCR3A) | IC50 (CXCR3)
1 | O=C(Cn1cnc2ccccc21)N1CCN(c2scnc2-c2nc3ccccc3[nH]2)CC1 [Example 1, 2-Benzoimidazol-1-yl-1-{4-[4-(1H-benzoimidazol-2-yl)-thiazol-5-yl]-piperazin-1-yl}-ethanone] | 30 nM | 3080 nM
2 | Cc1nc2ccccc2n1CC(=O)N1CCN(c2scnc2-c2nc3ccccc3[nH]2)CC1 [Example 2, 1-{4-[4-(1H-Benzoimidazol-2-yl)-thiazol-5-yl]-piperazin-1-yl}-2-(2-methyl-benzoimidazol-1-yl)-ethanone] | 198 nM | 3360 nM
3 | Cn1c(=O)n(CC(=O)N2CCN(c3scnc3-c3nc4ccccc4[nH]3)CC2)c2ccccc21 [Example 3, 1-(2-{4-[4-(1H-Benzoimidazol-2-yl)-thiazol-5-yl]-piperazin-1-yl}-2-oxo-ethyl)-3-methyl-1,3-dihydro-benzoimidazol-2-one] | 15 nM | 1200 nM
4 | O=C(Cn1ccc2ccccc21)N1CCN(c2scnc2-c2nc3ccccc3[nH]2)CC1 [Example 4, 1-{4-[4-(1H-Benzoimidazol-2-yl)-thiazol-5-yl]-piperazin-1-yl}-2-indol-1-yl-ethanone] | 15 nM | 2610 nM
5 | O=C(Cn1cnc2cccnc21)N1CCN(c2scnc2-c2nc3ccccc3[nH]2)CC1 [Example 14, 1-{4-[4-(1H-Benzoimidazol-2-yl)-thiazol-5-yl]-piperazin-1-yl}-2-imidazo[4,5-b]pyridin-3-yl-ethanone] | 11 nM | 1800 nM
6 | O=C(Cn1ccc2cccnc21)N1CCN(c2scnc2-c2nc3ccccc3[nH]2)CC1 [Example 15, 1-{4-[4-(1H-Benzoimidazol-2-yl)-thiazol-5-yl]-piperazin-1-yl}-2-pyrrolo[2,3-b]pyridin-1-yl-ethanone] | 14 nM | 2420 nM
7 | C[C@@H]1CN(c2scnc2-c2nc3ccccc3[nH]2)CCN1C(=O)Cn1cnc2cccnc21 [Example 17, 1-{(R)-4-[4-(1H-Benzoimidazol-2-yl)-thiazol-5-yl]-2-methyl-piperazin-1-yl}-2-imidazo[4,5-b]pyridin-3-yl-ethanone] | 6 nM | 447 nM
8 | CC[C@@H]1CN(c2scnc2-c2nc3ccccc3[nH]2)CCN1C(=O)Cn1ccc2cccnc21 [Example 18, 1-{(R)-4-[4-(1H-Benzoimidazol-2-yl)-thiazol-5-yl]-2-ethyl-piperazin-1-yl}-2-pyrrolo[2,3-b]pyridin-1-yl-ethanone] | 1 nM | 2420 nM
9 | COC[C@H]1CN(c2scnc2-c2nc3ccccc3[nH]2)CCN1C(=O)Cn1ccc2cccnc21 [Example 19, 1-{(R)-4-[4-(1H-Benzoimidazol-2-yl)-thiazol-5-yl]-2-methoxymethyl-piperazin-1-yl}-2-pyrrolo[2,3-b]pyridin-1-yl-ethanone] | 25 nM | 875 nM
10 | Cc1cccc2[nH]c(-c3ncsc3N3CCN(C(=O)Cn4ccc5cccnc54)[C@H](C)C3)nc12 [Example 22, 1-{(R)-2-Methyl-4-[4-(4-methyl-1H-benzoimidazol-2-yl)-thiazol-5-yl]-piperazin-1-yl}-2-pyrrolo[2,3-b]pyridin-1-yl-ethanone] | 1 nM | 568 nM
11 | C[C@@H]1CN(c2scnc2-c2nc3ccc(Cl)cc3[nH]2)CCN1C(=O)Cn1ccc2cccnc21 [Example 23, 1-{(R)-4-[4-(6-Chloro-1H-benzoimidazol-2-yl)-thiazol-5-yl]-2-methyl-piperazin-1-yl}-2-pyrrolo[2,3-b]pyridin-1-yl-ethanone] | 0.2 nM | 181 nM
12 | C[C@@H]1CN(c2scnc2-c2nc3ccc(C(C)(C)C)cc3[nH]2)CCN1C(=O)Cn1ccc2cccnc21 [Example 24, 1-{(R)-4-[4-(6-tert-Butyl-1H-benzoimidazol-2-yl)-thiazol-5-yl]-2-methyl-piperazin-1-yl}-2-pyrrolo[2,3-b]pyridin-1-yl-ethanone] | 1 nM | 215 nM
13 | C[C@@H]1CN(c2scnc2-c2nc3cc(S(C)(=O)=O)ccc3[nH]2)CCN1C(=O)Cn1ccc2cccnc21 [Example 25, 1-{(R)-4-[4-(5-Methanesulfonyl-1H-benzoimidazol-2-yl)-thiazol-5-yl]-2-methyl-piperazin-1-yl}-2-pyrrolo[2,3-b]pyridin-1-yl-ethanone] | 3 nM | 3140 nM
14 | Cc1cc2[nH]c(-c3ncsc3N3CCN(C(=O)Cn4ccc5cccnc54)[C@H](C)C3)nc2cc1Cl [Example 27, 1-{(R)-4-[4-(5-Chloro-6-methyl-1H-benzoimidazol-2-yl)-thiazol-5-yl]-2-methyl-piperazin-1-yl}-2-pyrrolo[2,3-b]pyridin-1-yl-ethanone] | 3 nM | 314 nM
15 | COc1cccc2nc(-c3ncsc3N3CCN(C(=O)Cn4c(=O)n(C)c5ccccc54)CC3)[nH]c12 [Example 30, 1-(2-{4-[4-(7-Methoxy-1H-benzoimidazol-2-yl)-thiazol-5-yl]-piperazin-1-yl}-2-oxo-ethyl)-3-methyl-1,3-dihydro-benzoimidazol-2-one] | 2 nM | 566 nM
16 | Cc1ccc2[nH]c(-c3ncsc3N3CCN(C(=O)Cn4c(=O)n(C)c5ccccc54)CC3)nc2c1 [Example 31, 1-Methyl-3-(2-{4-[4-(5-methyl-1H-benzoimidazol-2-yl)-thiazol-5-yl]-piperazin-1-yl}-2-oxo-ethyl)-1,3-dihydro-benzoimidazol-2-one] | 2 nM | 540 nM
17 | Cn1c(=O)n(CC(=O)N2CCN(c3scnc3-c3nc4cc(C(F)(F)F)ccc4[nH]3)CC2)c2ccccc21 [Example 32, 1-Methyl-3-(2-oxo-2-{4-[4-(5-trifluoromethyl-1H-benzoimidazol-2-yl)-thiazol-5-yl]-piperazin-1-yl}-ethyl)-1,3-dihydro-benzoimidazol-2-one] | 2 nM | 633 nM
18 | Cn1c(=O)n(CC(=O)N2CCN(c3scnc3-c3nc4cc(Cl)c(Cl)cc4[nH]3)CC2)c2ccccc21 [Example 35, 1-(2-{4-[4-(5,6-Dichloro-1H-benzoimidazol-2-yl)-thiazol-5-yl]-piperazin-1-yl}-2-oxo-ethyl)-3-methyl-1,3-dihydro-benzoimidazol-2-one] | 3 nM | 1510 nM
19 | Cc1c(Cl)ccc2nc(-c3ncsc3N3CCN(C(=O)Cn4c(=O)n(C)c5ccccc54)CC3)[nH]c12 [Example 37, 1-(2-{4-[4-(6-Chloro-7-methyl-1H-benzoimidazol-2-yl)-thiazol-5-yl]-piperazin-1-yl}-2-oxo-ethyl)-3-methyl-1,3-dihydro-benzoimidazol-2-one] | 4 nM | 1490 nM
20 | O=C(Cn1ccc2cccnc21)N1CCN(c2sc(Br)nc2-c2nc3ccccc3[nH]2)CC1 [Example 38, 1-{4-[4-(1H-Benzoimidazol-2-yl)-2-bromo-thiazol-5-yl]-piperazin-1-yl}-2-pyrrolo[2,3-b]pyridin-1-yl-ethanone] | 3 nM | 1580 nM
21 | CCc1nc(-c2nc3ccccc3[nH]2)c(N2CCN(C(=O)Cn3ccc4cccnc43)CC2)s1 [Example 39, 1-{4-[4-(1H-Benzoimidazol-2-yl)-2-ethyl-thiazol-5-yl]-piperazin-1-yl}-2-pyrrolo[2,3-b]pyridin-1-yl-ethanone] | 15 nM | 5880 nM
22 | O=C(Cn1ccc2cccnc21)N1CCCN(c2scnc2-c2nc3ccccc3[nH]2)CC1 [Example 44, 1-{4-[4-(1H-Benzoimidazol-2-yl)-thiazol-5-yl]-[1,4]diazepan-1-yl}-2-pyrrolo[2,3-b]pyridin-1-yl-ethanone] | 3 nM | 3900 nM
23 | CC[C@@H]1CN(c2scnc2-c2nc3ccccc3[nH]2)CCN1C(=O)Cn1cnc2cccnc21 [Example 49, 1-{(R)-4-[4-(1H-Benzoimidazol-2-yl)-thiazol-5-yl]-2-ethyl-piperazin-1-yl}-2-imidazo[4,5-b]pyridin-3-yl-ethanone] | 4 nM | 851 nM
24 | C[C@@H]1CN(c2sc(C(F)(F)F)nc2-c2nc3ccccc3[nH]2)CCN1C(=O)Cn1cnc2cccnc21 [Example 51, 1-{(R)-4-[4-(1H-Benzoimidazol-2-yl)-2-trifluoromethyl-thiazol-5-yl]-2-methyl-piperazin-1-yl}-2-imidazo[4,5-b]pyridin-3-yl-ethanone] | 1 nM | 66 nM
25 | O=C(Cn1ccc2cc(F)ccc21)N1CCN(c2scnc2-c2nc3ccccc3[nH]2)CC1 [Example 55, 1-{4-[4-(1 H-Benzoimidazol-2-yl)-thiazol-5-yl]-piperazin-1-yl}-2-(5-fluoro-indol-1-yl)-ethanone] | 4 nM | 1660 nM
26 | Cc1cccc2ccn(CC(=O)N3CCN(c4scnc4-c4nc5ccccc5[nH]4)CC3)c12 [Example 57, 1-{4-[4-(1H-Benzoimidazol-2-yl)-thiazol-5-yl]-piperazin-1-yl}-2-(7-methyl-indol-1-yl)-ethanone] | 2 nM | 4130 nM
